The record followed here is ChEMBL document CHEMBL4393743, “Anti-tumor activity evaluation of novel tubulin and HDAC dual-targeting inhibitors” (Bioorg Med Chem Lett, 2019).

Test [1] has as its system A549. Nature of the test: Induction of cell cycle arrest in human A549 cells assessed as accumulation at G2/M phase at 3 uM incubated for 36 hrs by propidium iodide staining based flow cytometry (reference value: 10.83%). The test is classed as functional.
Test [2] deals with A549. Kind of test: Induction of cell cycle arrest in human A549 cells assessed as accumulation at S phase at 0.1 uM incubated for 36 hrs by propidium iodide staining based flow cytometry (reference value: 16.66%). In kind it is functional. Background: In flow cytometry, cells or beads pass a laser one at a time.
For test [3], the system named is A549. Kind of test: Induction of cell cycle arrest in human A549 cells assessed as accumulation at G0/G1 phase at 3 uM incubated for 36 hrs by propidium iodide staining based flow cytometry (reference value: 72.51%). In kind it is functional.
Another test concerns HCT-116. Nature of the test: Antiproliferative activity against human HCT116 cells assessed as cell growth inhibition incubated for 72 hrs by MTT assay. In kind it is functional, cell-based. Conditions: HCT-116, 72 h. For orientation: Formazan colour is commonly taken as a measure of viable cells.
The subject of test [4] is A549. Kind of test: Induction of apoptosis in human A549 cells assessed as live cells at 0.1 uM incubated for 72 hrs by Annexin V-FITC/propidium iodide-staining based flow cytometric analysis (reference value: 89.8%). In kind it is functional.
Test [5] has as its system A549. Nature of the test: Induction of apoptosis in human A549 cells assessed as early apoptotic cells at 10 uM incubated for 72 hrs by Annexin V-FITC/propidium iodide-staining based flow cytometric analysis (reference value: 1.8%). The test is classed as functional.
Test [6] has as its system A549. Kind of test: Induction of apoptosis in human A549 cells assessed as early apoptotic cells at 0.1 uM incubated for 72 hrs by Annexin V-FITC/propidium iodide-staining based flow cytometric analysis (reference value: 1.8%). The test is classed as functional.
Test [7] concerns A549. Kind of test: Induction of apoptosis in human A549 cells assessed as late apoptotic cells at 0.3 uM incubated for 72 hrs by Annexin V-FITC/propidium iodide-staining based flow cytometric analysis (reference value: 5.69%). In kind it is functional.
The next test has as its system MDA-MB-231. Nature of the test: Antiproliferative activity against human MDA-MB-231 cells assessed as cell growth inhibition incubated for 72 hrs by MTT assay. In kind it is functional, cell-based. Conditions: MDA-MB-231, 72 h.
The target of test [8] is T1, Protein deacetylase HDAC6 (Homo sapiens, UniProt Q9UBN7).
T1 sequence (Q9UBN7 whole entry): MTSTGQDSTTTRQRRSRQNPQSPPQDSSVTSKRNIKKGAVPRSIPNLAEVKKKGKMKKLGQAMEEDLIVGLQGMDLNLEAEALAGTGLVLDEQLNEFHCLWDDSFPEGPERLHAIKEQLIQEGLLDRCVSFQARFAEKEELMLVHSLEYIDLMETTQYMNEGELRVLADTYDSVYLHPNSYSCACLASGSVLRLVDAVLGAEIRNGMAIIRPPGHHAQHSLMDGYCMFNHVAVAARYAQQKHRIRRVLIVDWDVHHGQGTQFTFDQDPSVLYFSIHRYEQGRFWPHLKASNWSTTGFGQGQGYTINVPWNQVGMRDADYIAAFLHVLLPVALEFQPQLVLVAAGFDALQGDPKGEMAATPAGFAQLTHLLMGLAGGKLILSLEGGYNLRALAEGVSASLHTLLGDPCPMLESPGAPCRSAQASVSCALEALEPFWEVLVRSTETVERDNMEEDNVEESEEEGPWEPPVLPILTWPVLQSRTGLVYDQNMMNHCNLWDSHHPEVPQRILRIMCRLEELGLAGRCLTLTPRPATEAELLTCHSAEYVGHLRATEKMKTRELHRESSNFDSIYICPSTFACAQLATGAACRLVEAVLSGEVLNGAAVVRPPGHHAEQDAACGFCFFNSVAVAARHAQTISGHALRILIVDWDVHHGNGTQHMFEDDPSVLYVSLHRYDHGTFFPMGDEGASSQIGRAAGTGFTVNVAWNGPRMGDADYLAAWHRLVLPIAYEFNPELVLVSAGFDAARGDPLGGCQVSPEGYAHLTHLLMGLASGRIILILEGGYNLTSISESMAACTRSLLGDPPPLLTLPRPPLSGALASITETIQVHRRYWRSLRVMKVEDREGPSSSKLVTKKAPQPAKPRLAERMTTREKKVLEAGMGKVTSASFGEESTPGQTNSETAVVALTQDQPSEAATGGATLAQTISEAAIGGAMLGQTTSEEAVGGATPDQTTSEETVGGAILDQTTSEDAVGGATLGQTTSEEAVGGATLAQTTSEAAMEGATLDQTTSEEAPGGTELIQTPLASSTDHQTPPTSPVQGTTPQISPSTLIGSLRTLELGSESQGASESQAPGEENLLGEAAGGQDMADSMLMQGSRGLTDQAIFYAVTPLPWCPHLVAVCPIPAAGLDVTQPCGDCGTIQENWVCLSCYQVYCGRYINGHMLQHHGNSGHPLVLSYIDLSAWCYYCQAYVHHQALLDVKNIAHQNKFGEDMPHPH
Nature of the test: Inhibition of HDAC6 (unknown origin) using Boc-Lys(Ac)-AMC as substrate incubated for 60 mins by fluorescence assay.

Test [9] has as its system A549. Kind of test: Induction of apoptosis in human A549 cells assessed as live cells at 10 uM incubated for 72 hrs by Annexin V-FITC/propidium iodide-staining based flow cytometric analysis (reference value: 89.8%). The test is classed as functional.
For test [10], the system named is A549. Nature of the test: Induction of apoptosis in human A549 cells incubated for 72 hrs by Annexin V-FITC/propidium iodide-staining based flow cytometric analysis. In kind it is functional, cell-based.
In another test the test system is MGC-803. Kind of test: Antiproliferative activity against human MGC803 cells assessed as cell growth inhibition incubated for 72 hrs by MTT assay. Conditions: MGC-803, 72 h. In kind it is functional, cell-based.
Test [11] has as its system A549. Nature of the test: Induction of cell cycle arrest in human A549 cells assessed as accumulation at G0/G1 phase at 10 uM incubated for 36 hrs by propidium iodide staining based flow cytometry (reference value: 72.51%). The test is classed as functional.
Test [12] concerns A549. Nature of the test: Induction of apoptosis in human A549 cells assessed as necrotic cells at 0.1 uM incubated for 72 hrs by Annexin V-FITC/propidium iodide-staining based flow cytometric analysis (reference value: 2.76%). The test is classed as functional.
The next test has as its system BGC-823. Nature of the test: Antiproliferative activity against human BGC823 cells assessed as cell growth inhibition incubated for 72 hrs by MTT assay. The following applies: BGC-823, 72 h. In kind it is functional, cell-based.
A further test addresses Tubulin. Kind of test: Inhibition of tubulin polymerization (unknown origin) by spectrophotometric method. In kind it is protein-complex assay, Homo sapiens.
The test system of a further test is NCI-H226. Kind of test: Antiproliferative activity against human NCI-H226 cells assessed as cell growth inhibition incubated for 72 hrs by MTT assay. In kind it is functional, cell-based. The following applies: NCI-H226, 72 h.
The next test addresses Histone deacetylase 1 (Homo sapiens, UniProt Q13547). Nature of the test: Inhibition of HDAC1 (unknown origin) using Boc-Lys(Ac)-AMC as substrate incubated for 60 mins by fluorescence assay.
Another test has as its system NCI-H460. Kind of test: Antiproliferative activity against human NCI-H460 cells assessed as cell growth inhibition incubated for 72 hrs by MTT assay. In kind it is functional, cell-based. Conditions: NCI-H460, 72 h.
For the next test, the system named is HeLa. Kind of test: Antiproliferative activity against human HeLa cells assessed as cell growth inhibition incubated for 72 hrs by MTT assay. The test is classed as functional, cell-based.
The test system of test [13] is A549. Nature of the test: Induction of cell cycle arrest in human A549 cells assessed as accumulation at S phase at 3 uM incubated for 36 hrs by propidium iodide staining based flow cytometry (reference value: 16.66%). In kind it is functional.
The test system of test [14] is A549. Kind of test: Induction of apoptosis in human A549 cells assessed as necrotic cells at 1 uM incubated for 72 hrs by Annexin V-FITC/propidium iodide-staining based flow cytometric analysis (reference value: 2.76%). In kind it is functional.

Molecules are shown by their SMILES.

Sequence of Histone deacetylase 1 (Q13547 whole entry): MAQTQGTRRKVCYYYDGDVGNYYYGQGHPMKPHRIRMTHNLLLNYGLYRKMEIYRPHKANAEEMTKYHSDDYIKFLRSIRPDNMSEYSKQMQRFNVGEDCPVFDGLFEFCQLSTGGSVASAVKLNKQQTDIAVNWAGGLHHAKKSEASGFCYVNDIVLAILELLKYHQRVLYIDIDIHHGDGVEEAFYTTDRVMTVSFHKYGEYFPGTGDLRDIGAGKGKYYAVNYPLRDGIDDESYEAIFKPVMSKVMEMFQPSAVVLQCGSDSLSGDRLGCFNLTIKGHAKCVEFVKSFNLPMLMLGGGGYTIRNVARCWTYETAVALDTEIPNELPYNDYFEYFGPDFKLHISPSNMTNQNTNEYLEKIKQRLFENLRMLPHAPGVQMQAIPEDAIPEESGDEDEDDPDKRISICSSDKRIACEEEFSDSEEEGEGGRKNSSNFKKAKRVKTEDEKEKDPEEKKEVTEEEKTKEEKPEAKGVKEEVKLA

On to `COc1ccc(/C=C(\C)C(=O)c2cc(OC)c(OC)c(OC)c2)cc1OCCCC(=O)NO`, for which the Activity with A549 [1] was found to be 80.69%; in the test with A549 [2] it was 22.09%; in the test on A549 [3], 9.13%; with A549 [4], 84.8%; in the test with A549 [5], 8.81%; in the test with A549 [6] it was 4.25%. Moreover, the Activity in the test with A549 [7] was 10.1%; in the test on A549 [9], 54.7%; in the test with A549 [10] it was “Dose-dependent effect”; in the test with A549 [11], 1.57%; with A549 [12], 1.51%; in the test with A549 [13], 10.18%. In addition, the Activity in the test with A549 [14] is on record as 8.05%. Moreover, the IC50 in the test with HCT-116 stood at 7.46 µM; in the test with MDA-MB-231, 6.95 µM; in test [8] it was 0.47 µM; in the test with MGC-803 it was 3.66 µM; with BGC-823 it was 2.4 µM; at Tubulin, 54.5 µM. The IC50 in the test with NCI-H226 came to 7.54 µM; on Histone deacetylase 1, 0.996 µM; with NCI-H460, 2.95 µM; in the test on HeLa, 0.89 µM.

As a reminder, the IC50 is the concentration that gives 50% inhibition.
